Source: US20070116713A1, “Compositions and methods for reducing or controlling blood cholesterol, lipoproteins, triglycerides and atherosclerosis” (priority 2005, published 2007)

Experiment: Case study: subjects taking capsules of the exemplary composition with exercise and low-fat diet; total cholesterol, triglycerides, LDL, HDL tracked
Assay type: in vivo, humans
Conditions: in two of the subjects; removed from the formulation
Source text: An initial study included 34 subjects. The subjects were advised to exercise and follow a strict low-fat diet, in addition to consuming doses of the exemplary composition. The subjects were tracked from 8 to 24 months.
It is contemplated within the scope of the invention to provide alternate formulations which eliminate nicotinic acid for use by those persons who cannot tolerate it.

SMILES: O=C(O)c1cccnc1 [nicotinic acid]
- tolerability of nicotinic acid in the formulation: not tolerated
